Measurements as given in paper PMC6934184, “Selective DNA-PKcs inhibition extends the therapeutic index of localized radiotherapy and chemotherapy” (The Journal of Clinical Investigation, 2019).

Target: T1, HCK (Homo sapiens, UniProt P08631)
T1 construct: purchased Thermo Fisher Scientific (Life Technologies) SelectScreen
Assay: SelectScreen Z'LYTE
Type: biochemical
In short: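 Compound tested in SelectScreen activity assays, Z'LYTE for CSF1R, CDK1/cyclin B and MAP2K6 and Adapta for CAMK1. ATP for CAMK1 was listed as 10, and Km app was used for CSF1R. Results are expressed in percent.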

T1 sequence (P08631 whole entry): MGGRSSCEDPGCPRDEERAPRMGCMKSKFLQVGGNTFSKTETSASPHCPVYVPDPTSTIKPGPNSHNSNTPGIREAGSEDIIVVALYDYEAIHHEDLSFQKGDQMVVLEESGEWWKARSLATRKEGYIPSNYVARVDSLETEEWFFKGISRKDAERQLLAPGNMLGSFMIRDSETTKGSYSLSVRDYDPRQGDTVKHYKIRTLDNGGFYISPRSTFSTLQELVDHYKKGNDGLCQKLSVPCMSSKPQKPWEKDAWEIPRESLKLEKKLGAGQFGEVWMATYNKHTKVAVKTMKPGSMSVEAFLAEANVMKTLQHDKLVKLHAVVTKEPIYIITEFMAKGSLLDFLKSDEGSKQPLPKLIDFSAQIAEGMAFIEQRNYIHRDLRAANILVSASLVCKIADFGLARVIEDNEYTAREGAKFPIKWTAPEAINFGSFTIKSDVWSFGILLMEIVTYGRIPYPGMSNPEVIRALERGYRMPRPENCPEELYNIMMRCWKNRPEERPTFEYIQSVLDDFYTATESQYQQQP

Structure (SMILES): CN(C(=O)CN1CCOCC1)c1ccc2sc3c(-c4cccc5c(=O)cc(N6CC7CCC(C6)O7)oc45)cccc3c2c1 [NU5455]
- inhibition at 1 µM: 18%
